Results on 15 compounds are retold here after the Kinase Knowledgebase extract (Sharma et al. 2016).

Test [1] has as its target PIK3CD (Human) (UniProt O00329). The experiment in a line: Cell-Based Assay. The following applies: raji.
Another test addresses PIK3CG (human) (UniProt P48736). Description: Enzyme Assay.
For test [2], the target named is PIK3CD (Human) (UniProt O00329). Description: Enzyme Assay.
The target in a further test is PIK3CB (Human) (UniProt P42338). The experiment in a line: Enzyme Assay.
PIK3CB (Human), sequence (P42338 whole entry, looked up): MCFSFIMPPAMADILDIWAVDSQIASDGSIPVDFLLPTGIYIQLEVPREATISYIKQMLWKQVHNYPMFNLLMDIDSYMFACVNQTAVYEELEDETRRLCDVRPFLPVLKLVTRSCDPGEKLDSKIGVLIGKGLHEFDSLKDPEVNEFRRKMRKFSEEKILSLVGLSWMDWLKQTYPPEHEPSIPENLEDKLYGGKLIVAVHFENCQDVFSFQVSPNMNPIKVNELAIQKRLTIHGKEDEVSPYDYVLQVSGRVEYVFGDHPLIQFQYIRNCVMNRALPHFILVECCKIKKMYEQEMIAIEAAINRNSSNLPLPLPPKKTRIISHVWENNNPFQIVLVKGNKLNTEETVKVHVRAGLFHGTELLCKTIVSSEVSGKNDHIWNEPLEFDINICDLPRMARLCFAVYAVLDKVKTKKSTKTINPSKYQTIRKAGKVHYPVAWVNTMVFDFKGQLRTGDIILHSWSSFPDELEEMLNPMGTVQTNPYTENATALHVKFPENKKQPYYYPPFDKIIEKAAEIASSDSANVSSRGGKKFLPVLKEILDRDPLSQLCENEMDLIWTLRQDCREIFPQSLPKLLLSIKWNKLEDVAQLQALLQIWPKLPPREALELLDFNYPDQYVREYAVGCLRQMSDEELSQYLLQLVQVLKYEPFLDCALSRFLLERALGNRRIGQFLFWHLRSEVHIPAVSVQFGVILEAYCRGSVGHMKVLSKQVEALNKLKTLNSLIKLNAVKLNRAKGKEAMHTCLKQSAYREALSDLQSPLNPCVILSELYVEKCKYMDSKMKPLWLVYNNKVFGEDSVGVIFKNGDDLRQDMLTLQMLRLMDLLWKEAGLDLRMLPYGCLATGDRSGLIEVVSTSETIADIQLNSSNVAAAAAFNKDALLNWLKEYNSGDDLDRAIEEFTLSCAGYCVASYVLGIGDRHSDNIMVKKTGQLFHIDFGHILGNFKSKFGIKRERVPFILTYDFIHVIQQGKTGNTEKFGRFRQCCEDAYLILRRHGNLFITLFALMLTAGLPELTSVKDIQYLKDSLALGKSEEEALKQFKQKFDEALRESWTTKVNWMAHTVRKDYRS

PIK3CD (Human), sequence (O00329 whole entry, looked up): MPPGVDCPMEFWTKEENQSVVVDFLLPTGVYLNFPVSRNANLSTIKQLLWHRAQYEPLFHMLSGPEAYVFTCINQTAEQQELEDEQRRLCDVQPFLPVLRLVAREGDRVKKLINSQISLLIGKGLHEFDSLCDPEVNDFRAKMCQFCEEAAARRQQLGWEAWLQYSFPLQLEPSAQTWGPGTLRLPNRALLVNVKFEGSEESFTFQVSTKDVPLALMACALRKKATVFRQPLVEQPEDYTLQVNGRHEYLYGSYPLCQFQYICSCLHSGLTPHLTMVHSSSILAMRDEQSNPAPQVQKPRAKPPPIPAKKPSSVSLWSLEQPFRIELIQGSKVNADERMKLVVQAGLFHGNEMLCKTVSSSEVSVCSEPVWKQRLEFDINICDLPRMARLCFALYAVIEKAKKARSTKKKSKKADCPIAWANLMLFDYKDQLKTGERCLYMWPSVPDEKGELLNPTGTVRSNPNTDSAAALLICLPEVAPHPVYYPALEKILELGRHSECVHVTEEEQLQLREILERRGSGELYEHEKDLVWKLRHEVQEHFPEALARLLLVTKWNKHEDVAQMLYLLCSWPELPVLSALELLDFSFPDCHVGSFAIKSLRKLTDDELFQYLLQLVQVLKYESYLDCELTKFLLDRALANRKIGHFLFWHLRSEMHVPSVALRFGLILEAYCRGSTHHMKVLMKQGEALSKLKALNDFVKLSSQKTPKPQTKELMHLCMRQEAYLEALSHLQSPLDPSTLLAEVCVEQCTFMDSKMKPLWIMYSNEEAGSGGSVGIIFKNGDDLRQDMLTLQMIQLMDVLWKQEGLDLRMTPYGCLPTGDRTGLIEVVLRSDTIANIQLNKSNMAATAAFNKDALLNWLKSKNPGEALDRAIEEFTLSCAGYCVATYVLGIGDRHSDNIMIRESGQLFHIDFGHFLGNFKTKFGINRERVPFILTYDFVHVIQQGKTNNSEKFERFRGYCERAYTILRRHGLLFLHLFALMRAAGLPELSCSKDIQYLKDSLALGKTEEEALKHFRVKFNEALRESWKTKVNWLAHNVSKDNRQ
PIK3CG (human), sequence (P48736 whole entry, looked up): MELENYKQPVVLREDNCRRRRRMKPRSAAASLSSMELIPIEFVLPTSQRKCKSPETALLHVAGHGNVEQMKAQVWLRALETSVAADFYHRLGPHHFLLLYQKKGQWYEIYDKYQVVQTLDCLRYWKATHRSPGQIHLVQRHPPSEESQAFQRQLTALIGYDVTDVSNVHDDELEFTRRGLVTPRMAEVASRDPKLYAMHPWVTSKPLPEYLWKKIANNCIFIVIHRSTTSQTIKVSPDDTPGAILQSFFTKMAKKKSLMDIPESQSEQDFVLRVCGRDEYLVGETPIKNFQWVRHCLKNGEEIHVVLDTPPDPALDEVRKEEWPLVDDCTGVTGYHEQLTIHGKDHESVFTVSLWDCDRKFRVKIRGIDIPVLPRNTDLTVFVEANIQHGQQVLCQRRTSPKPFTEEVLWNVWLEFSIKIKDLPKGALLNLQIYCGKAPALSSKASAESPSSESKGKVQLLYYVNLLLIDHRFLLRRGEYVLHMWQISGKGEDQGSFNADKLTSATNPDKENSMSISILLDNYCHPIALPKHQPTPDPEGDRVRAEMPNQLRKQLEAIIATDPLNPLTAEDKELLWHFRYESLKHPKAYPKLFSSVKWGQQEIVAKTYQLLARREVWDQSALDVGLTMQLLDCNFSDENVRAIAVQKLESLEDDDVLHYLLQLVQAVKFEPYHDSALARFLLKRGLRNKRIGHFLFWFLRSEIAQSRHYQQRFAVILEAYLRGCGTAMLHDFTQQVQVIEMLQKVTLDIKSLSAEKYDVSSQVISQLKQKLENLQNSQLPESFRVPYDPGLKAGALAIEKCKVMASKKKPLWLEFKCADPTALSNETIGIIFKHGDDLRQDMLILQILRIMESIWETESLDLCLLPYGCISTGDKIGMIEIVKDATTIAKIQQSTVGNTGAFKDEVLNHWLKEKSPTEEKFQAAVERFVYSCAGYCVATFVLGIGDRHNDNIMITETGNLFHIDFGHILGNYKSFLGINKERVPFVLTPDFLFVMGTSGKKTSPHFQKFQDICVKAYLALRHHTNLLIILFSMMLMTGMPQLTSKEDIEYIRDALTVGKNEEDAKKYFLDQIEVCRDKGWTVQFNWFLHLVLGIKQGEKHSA

In general, IC50 refers to the concentration needed to halve the response being measured. High values mean lower potency, low ones higher potency. On to `C/C=C/c1cccc2cc([C@H](C)NC(=O)c3c(N)nn4cccnc34)n(-c3ccccc3)c(=O)c12`, for which the IC50 at PIK3CD (Human) [1] was in the range of 0.001 to 0.1 µM; on PIK3CG (human) it was 0.1 to 0.5 µM; on PIK3CD (Human) [2], 5 to 10 µM; at PIK3CB (Human) it was 5 to 10 µM.
For `C[C@H](NC(=O)c1c(N)nn2cccnc12)c1cc2cccc(C#CCN3CCN(C)CC3)c2c(=O)n1-c1ccccc1`, the IC50 against PIK3CD (Human) [1] was 0.1 to 0.5 µM; at PIK3CG (human), 0.1 to 0.5 µM; against PIK3CD (Human) [2] it was 5 to 10 µM; against PIK3CB (Human), 5 to 10 µM.
As for `C[C@H](NC(=O)c1c(N)nn2cccnc12)c1cc2cccc(CC(=O)c3cnn(C)c3)c2c(=O)n1-c1ccccc1`, the IC50 fell in the range of 0.1 to 0.5 µM at PIK3CD (Human) [1], 0.5 to 1 µM on PIK3CG (human), 5 to 10 µM against PIK3CD (Human) [2] and 5 to 10 µM on PIK3CB (Human).
For the compound `C[C@H](NC(=O)c1c(N)nn2cccnc12)c1cc2cccc(C#Cc3ccn(C)n3)c2c(=O)n1-c1ccccc1`, the IC50 fell in the range of 0.1 to 0.5 µM against PIK3CD (Human) [1], 0.1 to 0.5 µM on PIK3CG (human), 5 to 10 µM at PIK3CD (Human) [2] and 5 to 10 µM at PIK3CB (Human).
With `Cc1ccncc1C#Cc1cccc2cc([C@H](C)NC(=O)c3c(N)nn4cccnc34)n(-c3ccccc3)c(=O)c12`, the IC50 lay within 1 to 10 µM against PIK3CD (Human) [1], 0.5 to 1 µM against PIK3CG (human), 5 to 10 µM against PIK3CD (Human) [2] and 5 to 10 µM against PIK3CB (Human).
Regarding `C[C@H](NC(=O)c1c(N)nn2cccnc12)c1cc2cccc(C#Cc3cncn3C)c2c(=O)n1C1CC1`, the half-maximal inhibitory concentration (IC50) against PIK3CD (Human) [1] lay in the range of 0.1 to 0.5 µM; on PIK3CG (human), 1 to 5 µM; against PIK3CD (Human) [2], 5 to 10 µM; against PIK3CB (Human) it was 1 to 5 µM.
Regarding `C[C@H](NC(=O)c1c(N)nn2cccnc12)c1cc2cccc(C#CC3CCNCC3)c2c(=O)n1-c1ccccc1`, the IC50 lay in the range of 1 to 10 µM at PIK3CD (Human) [1], 0.5 to 1 µM against PIK3CG (human), 5 to 10 µM against PIK3CD (Human) [2] and 5 to 10 µM at PIK3CB (Human).
Take `C[C@H](NC(=O)c1c(N)nn2cccnc12)c1cc2cccc(C#CC3CCCCC3)c2c(=O)n1-c1ccccc1`: the IC50 against PIK3CD (Human) [1] is 1 to 10 µM; against PIK3CG (human), 1 to 5 µM; against PIK3CD (Human) [2], 5 to 10 µM; at PIK3CB (Human), 5 to 10 µM.
`C[C@H](NC(=O)c1c(N)nn2cccnc12)c1cc2cccc(C#CC(C)(C)O)c2c(=O)n1-c1ccccc1`: the half-inhibitory concentration (IC50) at PIK3CD (Human) [1] was 1 to 10 µM; on PIK3CG (human), 0.1 to 0.5 µM; on PIK3CD (Human) [2], 5 to 10 µM; against PIK3CB (Human), 5 to 10 µM.
As for `CC(=O)N1CCC(C#Cc2cccc3cc([C@H](C)NC(=O)c4c(N)nn5cccnc45)n(-c4ccccc4)c(=O)c23)CC1`, the IC50 against PIK3CD (Human) [1] was in the range of 0.5 to 1 µM; at PIK3CG (human), 0.1 to 0.5 µM; against PIK3CD (Human) [2], 5 to 10 µM; at PIK3CB (Human) it was 5 to 10 µM.
Take `COc1ncc(C#Cc2cccc3cc([C@H](C)NC(=O)c4c(N)nn5cccnc45)n(-c4ccccc4)c(=O)c23)cn1`: the IC50 against PIK3CD (Human) [1] lay within 0.1 to 0.5 µM; at PIK3CG (human), 0.1 to 0.5 µM; against PIK3CD (Human) [2] it was 5 to 10 µM; against PIK3CB (Human), 5 to 10 µM.
In the case of `CC#Cc1cccc2cc(C(C)NC(=O)c3c(N)nn4cccnc34)c(-c3ccccc3)nc12` (stereo not given), the IC50 lay within 0.001 to 0.1 µM at PIK3CD (Human) [1], 0.1 to 0.5 µM on PIK3CG (human), 1 to 5 µM on PIK3CD (Human) [2] and 1 to 5 µM at PIK3CB (Human).
In the case of `C[C@H](NC(=O)c1c(N)nn2cccnc12)c1cc2cccc(C#Cc3cn[nH]c3)c2c(=O)n1-c1ccccc1`, the IC50 is 0.1 to 0.5 µM against PIK3CD (Human) [1], 0.001 to 0.1 µM against PIK3CG (human), 5 to 10 µM on PIK3CD (Human) [2] and 1 to 5 µM against PIK3CB (Human).
Regarding `Cc1ncccc1C#Cc1cccc2cc([C@H](C)NC(=O)c3c(N)nn4cccnc34)n(-c3ccccc3)c(=O)c12`, the IC50 at PIK3CD (Human) [1] was 1 to 10 µM; on PIK3CG (human), 1 to 5 µM; on PIK3CD (Human) [2], 5 to 10 µM; at PIK3CB (Human) it was 5 to 10 µM.
For `COc1cc(C#Cc2cccc3cc([C@H](C)NC(=O)c4c(N)nn5cccnc45)n(-c4ccccc4)c(=O)c23)ccn1`, the IC50 against PIK3CD (Human) [1] is 0.1 to 0.5 µM; against PIK3CG (human), 1 to 5 µM; against PIK3CD (Human) [2], 5 to 10 µM; against PIK3CB (Human) it was 5 to 10 µM.
